Where a name gives a salt, the structure may show the parent alone.
Assays:
[1] = system: phrenic nerve-hemidiaphragm preparation; test: In vitro muscle relaxing effect on the isolated phrenic nerve-hemidiaphragm preparation of rats; design: species or system rat; settings: for IC90: read-out: ED90 rat
[2] = system: phrenic nerve-hemidiaphragm preparation; test: In vitro muscle relaxing effect on the isolated phrenic nerve-hemidiaphragm preparation of guinea-pigs; design: species or system guinea-pig; settings: for IC90: read-out: ED90 guinea-pig
vagus = settings: 4×ED90 dose; cited from earlier work
[3] = system: anterior tibial muscle (musculus tibialis anterior); test: In vivo effect on the anterior tibial muscle of the guinea-pig; settings: for time for the 75% neuromuscular block to decrease to 25%: 2×ED90 doses; for ED50 / ED90: Cavia porcellus, iv; for Clinical duration / Onset time: 2 × ED90 dose; for Clinical duration / Recovery 25%-75% / Onset time: guinea-pig, mean ± SEM (n = 4); for Onset time: time required to 95% block
[4] = background; cited from earlier work
neuromuscular block = test: Comparison of the effects of 2 × ED90 doses in beagle dog; type: in vivo; design: Tetanic fade: unit not given here; settings: mean ± SEM; for Recovery 0-75% / Recovery index / Time to max. recovery: P <0.02; for T4/T1 at max. recovery: P <0.05; for Clinical duration / Onset time / Time to 80% block / ED90 / ED95: n = 8; for Clinical duration / Onset time: P <0.001; for Time to 80% block: P <0.01; for ED90 / ED95: Canis lupus familiaris, beagle dog
From the text: Comparison of the effects of 2 × ED90 doses in beagle dog (no.
animals in parentheses). Mean ± SEM.

[5] = system: phrenic nerve-hemidiaphragm preparation; test: Reversal of the in vitro neuromuscular block (wash-out, neostigmine, edrophonium); design: species or system rats and guinea-pigs
vagus nerve = test: Antivagal effect on anesthetized cat
[6] = rat, 0.1 Hz, 0.2 ms, supramaximal stimulus, mean ± SEM (n = 4)

Compound: 7',12dihydroxy-6,6dimethoxy-2,2',2trimethyltubocuraranium chloride hydrochloride [Tubocurarine chloride]
- IC90 [1, 6]: 1.02 ± 0.01 µM
- IC90 ([2]; guinea-pig, 0.1 Hz, 0.2 ms, supramaximal stimulus, mean ± SEM (n = 4)): 1.33 ± 0.09 µM

Compound: CC(=O)O[C@H]1C[C@@H]2CC[C@@H]3[C@H](CC[C@@]4(C)[C@H]3C[C@H]([N+]3(C)CCCCC3)[C@@H]4OC(C)=O)[C@@]2(C)C[C@@H]1[N+]1(C)CCCCC1 [Pancuronium bromide, 1'-[3α,17β-bis(acetyloxy)-5α-androstane-2β,16β-diyl]bis[1-methylpiperidinium]dibromide]
- IC90 ([1]; Rattus norvegicus): 6.36 ± 0.03 µM
- IC90 ([2]; Cavia porcellus): 0.29 ± 0.01 µM
- inhibition of the decrease of blood pressure caused by vagal stimulation (vagus): 50%
- inhibition of the decrease of heart rate caused by vagal stimulation (vagus): 50%
- time for the 75% neuromuscular block to decrease to 25% ([3]; guinea-pigs): 45.6 min
- ED50 [3]: 0.01 ± 0.0011 mg/kg
- ED90 [3]: 0.015 ± 0.0019 mg/kg
- Clinical duration [3]: 45.6 ± 5.68 min
- Recovery 25%-75% [3]: 14.8 ± 2.45 min
- Onset time [3]: 1.1 ± 0.31 min

Compound: CC(=O)O[C@H]1C[C@@H]2CC[C@@H]3[C@H](CC[C@@]4(C)[C@H]3C[C@H](N3CC[N+](C)(C)CC3)[C@@H]4OC(C)=O)[C@@]2(C)C[C@@H]1N1CC[N+](C)(C)CC1.[Br-].[Br-] [Pipecuronium bromide, 4,4'-[3α,17β-bis(acetyloxy)-5α-androstane-2β,16β-diyl]bis[1,1-dimethylpiperazinium]dibromide]
- IC90 [1, 6]: 1.5 ± 0.04 µM
- IC90 ([2]; Cavia porcellus, guinea-pig, 0.1 Hz, 0.2 ms, supramaximal stimulus, mean ± SEM (n = 4)): 0.08 ± 0.003 µM
- cardiovascular side effects / stability [4]: exceed those of pancuronium bromide or vecuronium bromide
- time for the 75% neuromuscular block to decrease to 25% ([3]; guinea-pigs): 60.6 min
- ED50 [3]: 0.004 ± 0.0007 mg/kg
- ED90 [3]: 0.006 ± 0.0007 mg/kg
- Clinical duration [3]: 60.6 ± 9.28 min
- Recovery 25%-75% [3]: 24.6 ± 3.71 min
- Onset time [3]: 1.5 ± 0.08 min

Compound: C=CC[N+]1([C@H]2C[C@H]3[C@@H]4CC[C@H]5C[C@H](OC(C)=O)[C@@H](N6CCC7(CC6)OCCO7)C[C@]5(C)[C@H]4CC[C@]3(C)[C@H]2OC(C)=O)CCCC1.[Br-] [Example 8, 1-[3α,17β-bis(acetyloxy)-2β-(1,4-dioxa-8-azaspiro[4.5]dec-8-yl)-5α-androstan-16β-yl]-1-(2-propenyl)pyrrolidinium bromide]
- IC90 ([1]; Rattus norvegicus): 8.37 ± 0.26 µM
- neuromuscular blocking (inhibitory) effect compared with known muscle relaxants ([1]; rat, in vitro): of the similar order of magnitude as that of other known, clinically employed muscle relaxants
- IC90 ([2]; Cavia porcellus): 0.9 ± 0.03 µM
- neuromuscular blocking (inhibitory) effect compared with known muscle relaxants ([2]; guinea-pig, in vitro): of the similar order of magnitude as that of other known, clinically employed muscle relaxants
- Recovery 0-75% (neuromuscular block; 2 × ED90, beagle dog, n = 4): 16.2 ± 0.9 min
- Recovery index (neuromuscular block; 2 × ED90, beagle dog, n = 4): 3.4 ± 0.4 min
- Time to max. recovery (neuromuscular block; 2 × ED90, beagle dog, n = 4): 24.4 ± 2.0 min
- T4/T1 at max. recovery (neuromuscular block; 2 × ED90, beagle dog, n = 4): 91.3 ± 4.8
- Tetanic fade (neuromuscular block; 2 × ED90, beagle dog, n = 4, P n.s. (not significant)): 97.5 ± 1.9
- Clinical duration (neuromuscular block; 2 × ED90, beagle dog): 12.6 ± 0.6 min
- Onset time (neuromuscular block; 2 × ED90, beagle dog): 75.3 ± 5.9 s
- Time to 80% block (neuromuscular block; 2 × ED90, beagle dog): 48.4 ± 2.9 s
- ED90 (neuromuscular block): 0.0105 ± 0.0002 mg/kg
- ED95 (neuromuscular block): 0.0111 ± 0.0002 mg/kg
- onset of action ([5]; in vitro): rapid
- reversibility by wash-out ([5]; in vitro): easily reversible by wash-out
- antagonism of the effect ([5]; with neostigmine methyl sulfate or edrophonium chloride): could also be antagonized with neostigmine methyl sulfate
- block of the vagus (vagus nerve; 8×ED90 dose): did not block the vagus
- inhibition of the effects of electrical stimulation of the vagus on heart rate or blood pressure (vagus nerve; 8×ED90 dose): did not inhibit the effects of electrical stimulation of this nerve on heart rate or blood pressure
- change in heart rate or blood pressure on electrical stimulation of the vagus (vagus nerve; in vivo cat experiments): no significant change in heart rate or blood pressure
- effect on the vagus (vagus nerve; in vivo cat experiments): no stimulating effect on the vagus
- Decrease in heart rate (vagus nerve; vagal stimulation, anesthetized cat, mean ± SEM (n = 4), control 14 ± 1.8): 15 ± 2.9%
- Decrease in blood pressure (vagus nerve; vagal stimulation, anesthetized cat, mean ± SEM (n = 4), control 40.0 ± 8.1): 32.0 ± 6.6 Hgmm
- time for the 75% neuromuscular block to decrease to 25% ([3]; guinea-pigs): 10.1 min
- ED50 [3]: 0.034 ± 0.002 mg/kg
- ED90 [3]: 0.048 ± 0.0027 mg/kg
- Clinical duration [3]: 10.1 ± 1.32 min
- Recovery 25%-75% [3]: 2.4 ± 0.3 min
- duration of action compared with reference substances ([3]; guinea-pigs, in vivo): shorter than those of other reference substances with similar chemical structure
- onset of action compared with reference substances ([3]; guinea-pigs, in vivo): more rapid
- Onset time [3]: 0.9 ± 0.18 min

Compound: CC(=O)O[C@H]1C[C@@H]2CC[C@@H]3[C@H](CC[C@@]4(C)[C@H]3C[C@H]([N+]3(C)CCCCC3)[C@@H]4OC(C)=O)[C@@]2(C)C[C@@H]1N1CCCCC1 [Vecuronium bromide, 1-[3α,17β-bis(acetyloxy)-2β-(1-piperidinyl)androstan-16β-yl]1-methylpiperidinium bromide hydrochloride]
- IC90 ([1]; Rattus norvegicus): 8.72 ± 0.38 µM
- IC90 ([2]; Cavia porcellus): 0.25 ± 0.01 µM
- Recovery 0-75% (neuromuscular block; 2 × ED90, beagle dog, n = 4): 24.9 ± 3.0 min
- Recovery index (neuromuscular block; 2 × ED90, beagle dog, n = 4): 6.6 ± 1.1 min
- Time to max. recovery (neuromuscular block; 2 × ED90, beagle dog, n = 4): 31.4 ± 4.3 min
- T4/T1 at max. recovery (neuromuscular block; 2 × ED90, beagle dog, n = 4): 71.0 ± 2.9
- Clinical duration (neuromuscular block; 2 × ED90, beagle dog): 17.8 ± 1.1 min
- Onset time (neuromuscular block; 2 × ED90, beagle dog): 115.1 ± 8.6 s
- Time to 80% block (neuromuscular block; 2 × ED90, beagle dog): 62.8 ± 4.5 s
- ED90 (neuromuscular block): 0.0358 ± 0.0009 mg/kg
- ED95 (neuromuscular block): 0.0379 ± 0.001 mg/kg
- cardiovascular side effects / stability [4]: lack of cardiovascular side effects
- ED50 [3]: 0.007 ± 0.0019 mg/kg
- ED90 [3]: 0.011 ± 0.002 mg/kg
- Clinical duration [3]: 26.6 ± 4.61 min
- Recovery 25%-75% [3]: 9.0 ± 2.35 min
- Onset time [3]: 1.3 ± 0.51 min

Reference: patent US5591735A, “Androstane derivatives substituted by a quaternary ammonium group in 16-position, pharmaceutical compositions containing them and process for preparing same” (Marvishi Pharmaceutical Co., Ltd., priority 1992, dated 1997)
